Laboratory results published in patent US20240122926A1, “APELIN RECEPTOR MODULATORS FOR TREATING MUSCLE CONDITIONS” (priority 2022, published 2024).
Where two headings read alike, the source gives them in different places.

Columns and labels:
mouse APLNR = target: T1, mouse APLNR (Mus musculus, UniProt Q9WV08); test: PathHunter β-arrestin eXpress GPCR assay, CHO cells stably expressing mouse APLNR; format: cell-based; conditions: for Emax: CHO
T1 construct: host or cells: CHO cells
T1 sequence (Q9WV08 1-377): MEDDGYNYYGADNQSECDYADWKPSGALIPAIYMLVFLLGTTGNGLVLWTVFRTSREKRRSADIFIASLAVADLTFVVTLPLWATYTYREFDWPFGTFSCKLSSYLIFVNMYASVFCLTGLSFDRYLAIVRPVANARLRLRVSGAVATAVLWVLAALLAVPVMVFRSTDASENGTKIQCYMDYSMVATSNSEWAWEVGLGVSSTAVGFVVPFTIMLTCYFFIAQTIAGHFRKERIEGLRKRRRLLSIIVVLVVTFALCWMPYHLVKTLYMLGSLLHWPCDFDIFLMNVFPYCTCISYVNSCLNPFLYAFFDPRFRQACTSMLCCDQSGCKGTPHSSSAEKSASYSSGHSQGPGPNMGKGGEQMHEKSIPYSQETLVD
Experimental: APLNR activation was determined by β-arrestin recruitment as measured by the ProLink […] complementation technology (93-0001, DiscoveRx). In brief, CHO cells stably expressing APLNR were seeded and incubated overnight at 37° C. The compounds were tested in duplicate and diluted to obtain a 10-point curve with 3-fold serial dilutions (<1% DMSO). The compounds and cells were incubated for 3 hours at 37° C. After the incubation period the detection reagents were added and the plate chemiluminescent signal was measured after 30 min at RT.

[1] = 14-day IV study in rat (toxicology exposure); format: in vivo
Experimental: (§1) The updated exposure margins considering the highest maximum exposures in rats and dogs are calculated as follows: maximum exposure in the rat (male) was in the 14-day IV study and at the 300 mg/kg dose, the AUClast is 1070 μg*hr/mL; maximum exposure in dogs occurred at the 300 mg/kg dose in the 9-month oral toxicity study and the AUClast is 1310*μg·hr/mL.

[2] = 9-month oral toxicity study in dogs; format: in vivo, dog
Experimental: as §1

[3] = test system: healthy volunteers aged ≥65 years; test: Phase 1b bed rest study Part B (MD), limb circumference and ultrasound muscle dimensions; format: in vivo, human
Experimental: In each of the 3 cohorts in Part B, 30 total subjects are enrolled to receive treatment in either Cohort 1A, Cohort 1B, or Cohort 1C. Cohort 1A includes 10 subjects who all receive placebo NS over a 1 hour infusion for 10 days on Days 1 through Day 10. […] Patients are at bed rest for the entire 10-day duration of treatment.
Ultrasound images were collected during the following study visits: Day −1 (baseline), Day 6 (pre-dose), and day 11 (end of treatment). Ultrasounds were performed of both the vastus lateralis and gastroenemius to measure cross-sectional area, color flow doppler, antero-posterior (AP) diameter, and echo density. Muscle circumference was also measured. Ultrasound imaging was conducted by the same operator throughout the study for all subjects. Ultrasound readings were done by the same reader throughout the study for all subjects. […] The leg measured (right vs. left) and leg location (medial vs. lateral) remained consistent for all ultrasounds.
Muscle circumference was measured in centimeters (cm) using a measuring tape and recorded on the ultrasound worksheet at the time of imaging.
The ultrasound images were collected before conducting the skeletal muscle micro-biopsy. Prior to testing, subjects were instructed to wear shorts on testing day to avoid compression of the upper leg musculature and to expose the upper portion of the thigh. Subjects were required to lay supine on an examination table with both legs fully extended for a minimum of 5 minutes to allow for fluid shifts to occur. Each subject was instructed to lay on their non-dominant side to obtain skeletal muscle ultrasound images of the vastus lateralis and gastrocnemius in the dominant leg. Subjects were positioned with their legs on top of one another and slightly bent at the knee. Ultrasound images of the vastus lateralis will be captured at 50% of the straight-line distance from the greater trochanter and the lateral epicondyle of the femur.
To ensure proper probe placement and consistent image capture location, a dotted line was drawn transversely and longitudinally along the surface of the skin from the aforementioned location. All measures of muscle morphology were obtained using a B-mode, 12-MHz linear probe US (General Electric vivid E9) to provide acoustic contact without depressing the dermal layer of the skin. Longitudinal B-mode and transverse field of view (FOV) images were acquired during each exam and analyzed. Ultrasound settings remained fixed for examination of each subject: image gain was set at 50 decibels (dB), dynamic range was set at 72, and image depth was set at 5 cm. Three panoramic transverse images (PTI) were captured in the transverse plane, perpendicular to the long axis of the muscle. These images utilized the extended-field-of-view ultrasonography in order to include entire area of the vastus lateralis in a single panoramic image.
Additionally, three single longitudinal images (SLI) were captured in the longitudinal plane, parallel to the long axis of the muscle. […] This same technique was applied to ultrasound of the gastrocnemius. Either the medial head or lateral head of the gastrocnemius was used for ultrasound evaluation, but not both. The same head was used for all gastrocnemius ultrasounds throughout the study.
(§2) One day before (baseline, D-1) and 5 (D5) and 10 (D10) days after initiation of bed rest, key muscle atrophy endpoints were measured: thigh circumference; cross-sectional area (CSA) and A-P diameter of vastus lateralis (ultrasound); ultrasound muscle quality grade, an index that quantifies fatty degeneration in muscle (ultrasound echo density); and muscle protein synthesis rate (biopsy). Parameters measured during the 10-day bed rest period include thigh circumference, muscle size, muscle quality (e.g., fatty degeneration), and muscle protein synthetic rate.

[4] = test system: healthy volunteers aged ≥65 years; test: Phase 1b bed rest study, ultrasound muscle quality grade (echo density); format: in vivo, human
Experimental: as §2
The echo density measurements showing the number of patients receiving an ultrasound muscle quality grading scale using a numerical grading system of grade 1 or a grade 2 classifying fatty muscle atrophy by measuring fatty infiltration of the muscle fibers of a biopsy from the patient. […] Open box represents normal muscle (grade 1), and striped box represents muscle that contains some fatty streaks (grade 2). […] (p=0.0019).

[5] = 240 mg IV once daily, 10 days bed rest

COc1cccc(OC)c1-n1c(NS(=O)(=O)[C@@H](C)[C@H](C)c2ncc(C)cn2)nnc1-c1cncc(C)c1 [BGE-105, (2S,3R)—N-(4-(2,6-dimethoxyphenyl)-5-(5-methyl-3-pyridinyl)-4H-1,2,4-triazol-3-yl)-3-(5-methyl-2-pyrimidinyl)-2-butanesulfonamide]
EC50 (mouse APLNR): 0.8 nM | Emax (mouse APLNR; read-out: maximum effect (Emax)): 65% | Emax (mouse APLNR; read-out: maximum effect (Emax), replication): 60% | predicted human exposure margin Human:Rat ([1]; 240 mg loading dose + 1440 mg IV for 22 hours, 1036/1070): 0.97 | AUC(0-t) ([1]; in vivo, rat (male), 14-day IV study, 300 mg/kg, read-out: AUClast, maximum exposure): 1070 µg·h/mL | NOAEL ([1]; rat): maximum dose tested | predicted human exposure margin Human:Dog ([2]; 240 mg loading dose + 1440 mg IV for 22 hours, 1036/1310): 0.79 | NOAEL ([2]; dog): maximum dose tested | AUC(0-t) ([2]; dog, in vivo, dogs, 9-month oral toxicity study, 300 mg/kg, read-out: AUClast, maximum exposure): 1310 µg·h/mL | reduction in loss of vastus lateralis cross-sectional area vs placebo [3, 5]: > 50% | reduction in loss of vastus lateralis muscle thickness vs placebo [3, 5]: 75% | decrease in gastrocnemius diameter, mean percent change from baseline ([3]; 10 days of bed rest (placebo 10.982%)): 2.942 | decrease in gastrocnemius cross-sectional area, mean percent change from baseline ([3]; 10 days of bed rest (placebo 15.72%)): 7.758% | improvement in muscle dimension vs placebo ([3]; Cohort 1B vs Cohort 1A): ~75% | decrease in calf circumference ([3]; female subjects (placebo 5.486%)): 1.166% | decrease in thigh circumference ([3]; female subjects (placebo 6.06%)): 1.674% | decrease in gastrocnemius cross sectional area ([3]; female subjects (placebo 15.32%)): 5.558% | decrease in vastus lateralis cross sectional area ([3]; female subjects (placebo 23.67%)): 9.676% | reduction in muscle loss from disuse atrophy ([3]; healthy volunteer bed rest study): up to 75% | increase in thigh circumference after 10-day bed rest ([3]; older patients, BGE-105 treated group (placebo 6.438% reduction)): 0.8% | number of subjects (out of 11) with fully preserved or increased thigh circumference ([3]; over 10 days of bed rest): 7 | percent of subjects with fully preserved or increased thigh circumference ([3]; over 10 days of bed rest): 64% | decrease in muscle size measured by ultrasound ([3]; treatment group (Cohort 1B) (placebo 21%)): 5.664% | Muscle grade (progression), number of subjects out of 11 ([4]; 240 mg daily (cohort MD 1B), 10-day bed rest): 1 | number of patients (out of 11) moving to / worsening to ultrasound muscle quality grade 2 ([4]; after 10 days of bed rest (placebo 8 of 10)): 1
